Data taken from patent US5324648A, “Substituted isocoumarins as serine protease inhibitors and anti-inflammatory agents” (Georgia Tech Research Corporation, priority 1992, dated 1994).

Key:
Type in all cases: biochemical
human thrombin = biological target: T1, human thrombin (Homo sapiens, UniProt P00734); assay: Inactivation rate of human thrombin; conditions: Table VIII; pH 7.5, 25° C; [I] 1.2-54 μM; read-out: kobs/[I]
T1 construct: human thrombin
Method: (§1) Inactivation rates of serine proteases by substituted isocoumarins were measured by the incubation method. An aliquot of inhibitor (25 or 50 μl) in Me2 SO was added to a buffered enzyme solution (0.01-2.3 μM) to initiate the inactivation. Aliquots (50 μl) were withdrawn at various intervals and the residual enzymatic activity was measured. Me2 SO concentration in the reaction mixture was 8-12% (v/v). 0.1 Hepes, 0.01M CaCl2, pH 7.5 buffer was utilized for trypsin and coagulation enzymes. 0.1M Hepes, 0.5M NaCl, pH 7.5 was utilized for other serine proteases. The inhibitor concentrations are shown in all the tables. Peptide thioesters or peptide nitroanilides with appropriate sequence were used as substrates for various serine proteases. All peptide thioester hydrolysis rates were measured with assay mixtures containing 4,4'-dithiodipyridine (ε324 =19800M^-1 cm^-1; Grasetti & Murray, Arch. Biochem. Biophys. 119, pp 41-49 (1967)). Peptide 4-nitroanilide nitroanilide hydrolysis was measured at 410 nm (ε410 =8800M^-1 cm^-1; Erlanger et al., Arch. Biochem. Biophys. 95, pp 271-278 (1961)). First order inactivation rate constant (kobs) were obtained from plots of ln (vt /vo) vs time, and the correlation coefficients were greater than 0.98.
(§2) ^a Inhibition rates were measured in 0.1M Hepes, 0.01M CaCl2, pH
(§3) 7.5 buffer, 8% Me2 SO and at 25° C.

bovine thrombin = biological target: T2, bovine thrombin (Bos taurus, UniProt P00735); assay: Inactivation rate of bovine thrombin; conditions: Table VIII; pH 7.5, 25° C; [I] 1.2-54 μM; read-out: kobs/[I]
T2 construct: bovine thrombin
Method: as §1
(§4) ^a Conditions were as 0.1M Hepes, 0.01M CaCl2, pH 7.5 and 8-12%
(§5) Me2 SO and 25° C. Rate constants were measured by incubation
(§6) method unless otherwise noted. An aliquot of inhibitor was added to an
(§7) enzyme solution and aliquots removed with time and assayed for remaining
(§8) enzymatic activity. Firstorder rate constants, kobs were obtained
(§9) from the plots of ln(vt /vo) versus time.
as §2, §3

bovine trypsin = biological target: T3, bovine trypsin (Bos taurus, UniProt P00760); assay: Inactivation rate of bovine trypsin; conditions: Table VIII; pH 7.5, 25° C; [I] 1.1-4.6 μM; read-out: kobs/[I]
T3 sequence (P00760 24-246): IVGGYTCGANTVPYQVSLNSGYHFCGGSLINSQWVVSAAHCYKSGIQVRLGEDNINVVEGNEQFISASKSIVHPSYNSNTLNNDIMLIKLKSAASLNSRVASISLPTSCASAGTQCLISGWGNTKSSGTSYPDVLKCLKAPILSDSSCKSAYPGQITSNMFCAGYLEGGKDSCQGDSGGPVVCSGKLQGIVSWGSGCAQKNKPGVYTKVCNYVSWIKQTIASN
Method: as §1, §4, §5, §6, §7, §8, §9, §2, §3

[1] = biological target: recombinant human tissue plasminogen activator (Homo sapiens, UniProt P00750); assay: Inactivation rate of recombinant human tissue plasminogen activator; conditions: pH 7.5, Table IX; pH 7.5, 25° C; [I] 3.5-5.0 μM; read-out: kobs/[I]
Method: as §1
^a Inactivation constants were measured at 0.1M Hepes, 0.5M NaCl (or
as §2
(§10) 7.5 buffer for human plasmin; 25 mM Phosphate, 0.5M NaCl, 1 mM EDTA, pH
(§11) 7.5 buffer for rat skin tryptase and 0.1M Hepes, 0.5M NaCl, pH 7.5 for
(§12) human lung tryptase, human skin tryptase and rt-PA. All enzymes were
(§13) assayed with ZArg-SBzl (0.07 mM) in the presence of 4,4dithiodipyridine
(§14) (0.33 mM). Reaction mixtures contained 8% Me2 SO and assays were […]

rat skin tryptase = biological target: T4, rat skin tryptase (Rattus norvegicus, UniProt P27435); assay: Inactivation rate of rat skin tryptase; conditions: pH 7.5, Table IX; pH 7.5, 25° C; [I] 0.42-0.51 μM; read-out: kobs/[I]
T4 construct: from tissue; host or cells: rat skin
Method: as §1
^b Inactivation rates were measured at 25 mM phosphate, 0.5M NaCl, 1
mM EDTA, pH 7.5 buffer, 9% Me2 SO and 25° C.
as §2, §10, §11, §12, §13, §14

human lung tryptase = assay: Inactivation rate of human lung tryptase; conditions: Table IX
Method: as §1
^a Inactivation rates were measured at 0.1M Hepes, 0.5M NaCl, pH 7.5
buffer, 8% Me2 SO and 25° C.
as §2, §10, §11, §12, §13, §14

T4 sequence (P27435 29-273): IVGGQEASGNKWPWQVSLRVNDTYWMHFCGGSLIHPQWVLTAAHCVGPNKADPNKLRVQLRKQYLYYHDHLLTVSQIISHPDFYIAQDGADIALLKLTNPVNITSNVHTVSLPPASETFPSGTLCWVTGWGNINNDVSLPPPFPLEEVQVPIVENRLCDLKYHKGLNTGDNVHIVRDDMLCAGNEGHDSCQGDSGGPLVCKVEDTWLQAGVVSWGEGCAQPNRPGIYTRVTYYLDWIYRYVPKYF
Chain of recombinant human tissue plasminogen activator (P00750 36-562): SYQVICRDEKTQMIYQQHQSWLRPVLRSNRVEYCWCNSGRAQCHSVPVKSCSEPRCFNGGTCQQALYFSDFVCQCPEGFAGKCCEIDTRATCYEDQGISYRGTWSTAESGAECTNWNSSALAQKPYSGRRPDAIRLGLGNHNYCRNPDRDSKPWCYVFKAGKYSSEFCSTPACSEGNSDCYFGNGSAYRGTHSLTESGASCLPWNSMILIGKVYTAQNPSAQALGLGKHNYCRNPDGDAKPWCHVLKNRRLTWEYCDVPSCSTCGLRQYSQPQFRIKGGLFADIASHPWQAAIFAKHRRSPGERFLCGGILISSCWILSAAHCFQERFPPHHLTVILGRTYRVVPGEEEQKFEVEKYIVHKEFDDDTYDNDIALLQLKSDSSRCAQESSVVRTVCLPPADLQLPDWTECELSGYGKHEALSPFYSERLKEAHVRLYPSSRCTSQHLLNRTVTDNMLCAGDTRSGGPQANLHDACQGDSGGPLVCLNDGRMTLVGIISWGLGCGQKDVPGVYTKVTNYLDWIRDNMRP

| kinact/KI (human thrombin) [M⁻¹ s⁻¹] | kinact/KI (bovine thrombin) [M⁻¹ s⁻¹] | kinact/KI (bovine trypsin) [M⁻¹ s⁻¹] | kinact/KI [1] [M⁻¹ s⁻¹] | kinact/KI (rat skin tryptase) [M⁻¹ s⁻¹] | kobs/[I] (human lung tryptase; pH 7.5, 25° C, [I] 0.42-0.47 μM) | percentage of inhibition (human lung tryptase; not time dependent, at 0.34-5.0 μM) [%] | SMILES |
| --- | --- | --- | --- | --- | --- | --- | --- |
| 220 | 180 | 68300 | – | – | – | – | N=C(N)SCCCOc1oc(=O)c2cc(NC(=O)[C@H](N)Cc3ccccc3)ccc2c1Cl [D-Phe--NH-CiTPrOIC, 7-(D-phenylalanylamino)-4-chloro-3-(3-isothiureidopropoxy)isocoumarin] |
| 470 | 400 | – | 11000 | 96000 | – | 54 | N=C(N)SCCCOc1oc(=O)c2cc(NC(=O)[C@@H](N)Cc3ccccc3)ccc2c1Cl [L-Phe--NH-CiTPrOIC, 7-(L-phenylalanylamino)-4-chloro-3-(3-isothiureidopropoxy)isocoumarin] |
| 5800 | 17500 | – | – | – | – | – | N=C(N)SCCOc1oc(=O)c2cc(NC(=O)Nc3cccc4ccccc34)ccc2c1Cl [Naphthyl-NHCONH-CiTEtOIC, 7-(1-naphthylcarbamoylamino)-4-chloro-3-(2-isothiureidoethoxy)isocoumarin] |
| 17500 | – | – | – | – | – | – | N=C(N)SCCOc1oc(=O)c2cc(NC(=S)Nc3cccc(C(=O)O)c3)ccc2c1Cl [m-Carboxy-PhNHCSNH-CiTEtOIC, 7-(m-carboxyphenylthiocarbamoyl)amino-4-chloro-3-(2-isothiureidoethoxy)isocoumarin] |

Second part, the compound before the results:

| SMILES | kinact/KI (human thrombin) [M⁻¹ s⁻¹] | kinact/KI (bovine thrombin) [M⁻¹ s⁻¹] | kinact/KI (bovine trypsin) [M⁻¹ s⁻¹] | kinact/KI [1] [M⁻¹ s⁻¹] | kinact/KI (rat skin tryptase) [M⁻¹ s⁻¹] | kobs/[I] (human lung tryptase; pH 7.5, 25° C, [I] 0.42-0.47 μM) | percentage of inhibition (human lung tryptase; not time dependent, at 0.34-5.0 μM) [%] |
| --- | --- | --- | --- | --- | --- | --- | --- |
| CC(C)NC(=O)Nc1ccc2c(Cl)c(OCCSC(=N)N)oc(=O)c2c1 [(CH3)2 CHNHCONH-CiTEtOIC, 7-(isopropylcarbamoylamino)-4-chloro-3-(2-isothiureidoethoxy)isocoumarin] | 5000 | 4100 | – | – | – | – | – |
| C[C@H](NC(=O)OC(C)(C)C)C(=O)N[C@@H](C)C(=O)Nc1ccc2c(Cl)c(OCCSC(=N)N)oc(=O)c2c1 [Boc--Ala-- Ala--NH-CiTEtOIC, 7-(N-t-butyloxycarbonyl-L-alanyl-L-alanylamino)-4-chloro-3-(2-isothiureidoethoxy)isocoumarin] | 970 | 1530 | – | – | – | – | – |
| CC(C)(C)OC(=O)N[C@H](Cc1ccccc1)C(=O)Nc1ccc2c(Cl)c(OCCCSC(=N)N)oc(=O)c2c1 [Boc-D-Phe--NH-CiTPrOIC, 7-(N-t-butyloxycarbonyl-D-phenylalanylamino)-4-chloro-3-(3-isothiureidopropoxy)isocoumarin] | 230 | 190 | 105000 | – | – | – | – |
| CC(C)(C)OC(=O)N[C@@H](Cc1ccccc1)C(=O)Nc1ccc2c(Cl)c(OCCCSC(=N)N)oc(=O)c2c1 [Boc-L-Phe--NH-CiTPrOIC, 7-(N-t-butyloxycarbonyl-L-phenylalanylamino)-4-chloro-3-(3-isothiureidopropoxy)isocoumarin] | 520 | 330 | – | 6000 | 150000 | 170,000 M^-1 s^-1 | – |
